Test results from US20250084087A1, “BICYCLIC HETEROCYCLES AS MRGPRX2 ANTAGONISTS” (Incyte Corporation, priority 2023, published 2025).
pIC50: −log10 of the molar value.

Experiments:
Type in all cases: cell-based
MRGPRX2 [1] = molecular target: T1, MRGPRX2 (Homo sapiens, UniProt Q96LB1); test: MRGPRX2 β-Arrestin recruitment assay (PathHunter); set-up: host or cells: CHO-K1 (PathHunter); conditions: PathHunter CHO-K1 MRGPRX2 β-Arrestin cell line; agonist Cortistatin 14 0.25 μM
T1 sequence (Q96LB1 1-330): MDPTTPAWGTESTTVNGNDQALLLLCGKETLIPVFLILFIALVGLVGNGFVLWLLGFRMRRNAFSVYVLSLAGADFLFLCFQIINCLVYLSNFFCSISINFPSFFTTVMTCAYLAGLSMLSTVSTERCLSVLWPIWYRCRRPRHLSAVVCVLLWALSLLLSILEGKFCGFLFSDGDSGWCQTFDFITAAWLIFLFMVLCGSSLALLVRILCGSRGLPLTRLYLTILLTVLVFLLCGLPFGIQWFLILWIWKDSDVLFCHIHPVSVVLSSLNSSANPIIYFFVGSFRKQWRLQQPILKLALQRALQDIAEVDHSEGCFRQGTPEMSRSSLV
In short: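 CHO-K1 PathHunter cells co-expressing ProLink-tagged MRGPRX2 and enzyme-acceptor-tagged β-arrestin were preincubated with compound 1 h at 37° C., then stimulated with cortistatin-14 (0.25 μM final) for 90 min. Enzyme-complementation luminescence read after 1 h detection; data normalized to DMSO and reference antagonist, IC50 from 3- or 4-parameter Hill fit.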

MRGPRX2 [2] = molecular target: T1, MRGPRX2; test: MRGPRX2 FLIPR calcium mobilization assay; set-up: host or cells: CHO-K1; conditions: CHO-K1 cells stably expressing human MRGPRX2; Ca2+ release; agonist Cortistatin-14 at EC80
Protocol: Example A. MRGPRX2 FLIPR Calcium Mobilization Assay
Chinese hamster ovary (CHO-K1) cells stably expressing human MRGPRX2 were purchased from Genescript (Piscataway, NJ). The cells were maintained in culture medium (Ham's F-12K) containing 10% (v/v) FBS, 200 μg/mL Zeocin, 100 units/mL penicillin G and 100 μg/mL streptomycin (Life Technologies, Carlsbad, CA). For the assay, the cells were harvested and resuspended with culture medium without Zeocin before plating at 8000 cells per well in 20 μL in 384-well black clear bottom cell culture plates (VWR, Radnor, PA). After 24 hour culture at 37° C. and 5% CO2, the cells were loaded with 20 μL/well of calcium dye (FLIPR Calcium 6 Assay Kit, Molecular Devices, San Jose, CA) diluted in loading buffer (1× Hank's Balanced Salt Solution (HBSS), 5 mM probenecid, 20 mM 4-(2-hydroxyethyl)-1-piperazineethanesulfonic acid (HEPES), pH 7.4, VWR, Radnor, PA) followed with 45 min. incubation at 37° C. and 40 min. at r.t. in the dark. Cells were then treated with the addition of 10 uL/well test compounds with a range of increasing concentrations diluted in the assay buffer (1×HBSS, 20 mM HEPES, pH 7.4, VWR, Radnor, PA) with FLIPR Penta (Molecular Devices. San Jose, CA) and incubated for 30 min. at r.t. Ca^2+ release was measured with FLIPR Penta with 10 seconds basal fluorescence measurement, then 12.5 μL of 5× agonist Cortistatin-14 (Tocris, Minneapolis, MN) at final concentration corresponding to the EC80 were added followed with continued fluorescence signal monitoring for an additional 110 seconds. The base line adjusted (median of first 10s base line) max value of the Relative Fluorescence Unit (RFU) was plotted against compound concentrations. Wells with no compound were served as the positive controls, and wells with high concentration of reference antagonist were used as negative controls. IC50 curves were globally fitted with 3- or 4-parameter Hill equation in a Genedata Screener (Genedata Basel, Switzerland).

MRGPRX2 [3] = molecular target: T1, MRGPRX2; test: MRGPRX2 IP1 HTRF assay; set-up: host or cells: CHO-K1; conditions: CHO-K1 cells stably expressing human MRGPRX2; IP1 accumulation; agonist Cortistatin 14 1 μM
In short: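 CHO-K1 cells stably expressing human MRGPRX2, preincubated with compound 1 h at 37 °C, then stimulated with 1 μM Cortistatin 14 for 1 h. IP1 measured by HTRF against standard curve, normalized to DMSO and reference antagonist controls; IC50 from 3- or 4-parameter Hill fit.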

| pIC50 (MRGPRX2 [1]) | pIC50 (MRGPRX2 [2]) | pIC50 (MRGPRX2 [3]) | Structure (SMILES) |
| --- | --- | --- | --- |
| 7.00 to 10.00 | 7.00 to 10.00 |  | OC1CCC(CNc2cc(C(F)(F)F)nc3cc(Br)nn23)(c2ccccc2)C1 (racemic) [Example 84, 3-(((2-Bromo-5-(trifluoromethyl)pyrazolo[1,5-a]pyrimidin-7-yl)amino)methyl)-3-phenylcyclopentan-1-ol] |
|  | 7.00 to 10.00 | 7.00 to 10.00 | NS(=O)(=O)N1CCC(CNc2nc(Cl)cc3nc(C(F)(F)F)cn23)(c2ccccc2)CC1 [Example 5, 4-(((7-Chloro-2-(trifluoromethyl)imidazo[1,2-c]pyrimidin-5-yl)amino)methyl)-4-phenylpiperidine-1-sulfonamide] |
|  | 7.00 to 10.00 | 6.00 to 7.00 | Cc1cc(NCC2(c3ccccc3)CCN(C(N)=O)CC2)n2nc(C(F)(F)F)nc2n1 [Example 7, 4-(((5-Methyl-2-(trifluoromethyl)-[1,2,4]triazolo[1,5-a]pyrimidin-7-yl)amino)methyl)-4-phenylpiperidine-1-carboxamide] |
|  | 7.00 to 10.00 | 7.00 to 10.00 | NC(=O)N1CC(CNc2cc(C(F)(F)F)nc3cc(C(F)(F)F)nn23)(n2cc(F)cn2)C1 [Example 10, 3-(((2,5-Bis(trifluoromethyl)pyrazolo[1,5-a]pyrimidin-7-yl)amino)methyl)-3-(4-fluoro-1H-pyrazol-1-yl)azetidine-1-carboxamide] |
|  | 7.00 to 10.00 | 7.00 to 10.00 | NS(=O)(=O)N1CC(CNc2cccc3nc(C(F)(F)F)nn23)(n2cc(F)cn2)C1 [Example 11, 3-(4-Fluoro-1H-pyrazol-1-yl)-3-(((2-(trifluoromethyl)-[1,2,4]triazolo[1,5-a]pyridin-5-yl)amino)methyl)azetidine-1-sulfonamide] |
|  | 7.00 to 10.00 | 6.00 to 7.00 | NC(=O)N1CC(CNc2cccc3nc(C(F)(F)F)nn23)(n2cc(F)cn2)C1 [Example 12, 3-(4-Fluoro-1H-pyrazol-1-yl)-3-(((2-(trifluoromethyl)-[1,2,4]triazolo[1,5-a]pyridin-5-yl)amino)methyl)azetidine-1-carboxamide] |
|  | 7.00 to 10.00 | 7.00 to 10.00 | CNC(=O)N1CCC(CNc2cccc3nc(C(F)(F)F)nn23)(c2ccccc2)CC1 [Example 13, N-Methyl-4-phenyl-4-(((2-(trifluoromethyl)-[1,2,4]triazolo[1,5-a]pyridin-5-yl)amino)methyl)piperidine-1-carboxamide] |
|  | 7.00 to 10.00 | 6.00 to 7.00 | COC(=O)N1CCC(CNc2cc(C(F)(F)F)nc3cc(C(F)(F)F)nn23)(c2ccccc2)CC1 [Example 14, Methyl 4-(((2,5-bis(trifluoromethyl)pyrazolo[1,5-a]pyrimidin-7-yl)amino)methyl)-4-phenylpiperidine-1-carboxylate] |
|  | 7.00 to 10.00 | 7.00 to 10.00 | CNC(=O)N1CCC(CNc2cc(C(F)(F)F)nc3cc(C(F)(F)F)nn23)(c2ccccc2)CC1 [Example 15, 4-(((2,5-Bis(trifluoromethyl)pyrazolo[1,5-a]pyrimidin-7-yl)amino)methyl)-N-methyl-4-phenylpiperidine-1-carboxamide] |
| 7.00 to 10.00 | 7.00 to 10.00 |  | Cn1nc(N2CCC(CNc3cc(C(F)(F)F)nc4cc(C(F)(F)F)nn34)(c3ccc(F)cc3)CC2)ccc1=O [Example 40, 6-(4-(((2,5-Bis(trifluoromethyl)pyrazolo[1,5-a]pyrimidin-7-yl)amino)methyl)-4-(4-fluorophenyl)piperidin-1-yl)-2-methylpyridazin-3(2H)-one] |
| 7.00 to 10.00 | 7.00 to 10.00 |  | Cn1cc(N2CC(CNc3cc(C(F)(F)F)nc4cc(C(F)(F)F)nn34)(c3ccc(F)cc3)C2)nn1 [Example 46, N-((3-(4-Fluorophenyl)-1-(1-methyl-1H-1,2,3-triazol-4-yl)azetidin-3-yl)methyl)-2,5-bis(trifluoromethyl)pyrazolo[1,5-a]pyrimidin-7-amine] |
| 7.00 to 10.00 | 7.00 to 10.00 |  | NC(=O)c1cccc(N2CC(CNc3cc(C(F)(F)F)nc4cc(C(F)(F)F)nn34)(c3ccc(F)cc3)C2)n1 [Example 47, 6-(3-(((2,5-Bis(trifluoromethyl)pyrazolo[1,5-a]pyrimidin-7-yl)amino)methyl)-3-(4-fluorophenyl)azetidin-1-yl)picolinamide] |
| 7.00 to 10.00 | 7.00 to 10.00 |  | CN1CC[C@@H]1C(=O)N1CCC(CNc2cc(C(F)(F)F)nc3cc(C(F)(F)F)nn23)(c2ccc(F)cc2)CC1 [Example 50, (R)-(4-(((2,5-Bis(trifluoromethyl)pyrazolo[1,5-a]pyrimidin-7-yl)amino)methyl)-4-(4-fluorophenyl)piperidin-1-yl)(1-methylazetidin-2-yl)methanone] |
| 7.00 to 10.00 | 7.00 to 10.00 |  | O=C(CN1CCC1)N1CCC(CNc2cc(C(F)(F)F)nc3cc(Br)nn23)(c2ccc(F)cc2)CC1 [Example 60, 2-(Azetidin-1-yl)-1-(4-(((2-bromo-5-(trifluoromethyl)pyrazolo[1,5-a]pyrimidin-7-yl)amino)methyl)-4-(4-fluorophenyl)piperidin-1-yl)ethan-1-one] |
| 7.00 to 10.00 | 7.00 to 10.00 |  | O=C(NC1CC1)N1CC(CNc2cc(C(F)(F)F)nc3cc(C(F)F)nn23)(c2ccc(F)cc2)C1 [Example 63, N-Cyclopropyl-3-(((2-(difluoromethyl)-5-(trifluoromethyl)pyrazolo[1,5-a]pyrimidin-7-yl)amino)methyl)-3-(4-fluorophenyl)azetidine-1-carboxamide] |
|  | 6.00 to 7.00 |  | Cc1cc2nc(I)cc(NCC3(c4ccccc4)CCOC3)n2n1 (centres unmarked) [Example 78, 5-Iodo-2-methyl-N-((3-phenyltetrahydrofuran-3-yl)methyl)pyrazolo[1,5-a]pyrimidin-7-amine] |
| 7.00 to 10.00 | 7.00 to 10.00 |  | N#CCCNC1CCC(CNc2cc(C(F)(F)F)nc3cc(Br)nn23)(c2ccccc2)CC1 (centres unmarked) [Example 81, 3-((4-(((2-Bromo-5-(trifluoromethyl)pyrazolo[1,5-a]pyrimidin-7-yl)amino)methyl)-4-phenylcyclohexyl)amino)propanenitrile] |
| 7.00 to 10.00 | 7.00 to 10.00 |  | FC(F)(F)c1cc(NCC2(c3ccccc3)CC=CC2)n2nc(Br)cc2n1 [Example 82, 2-Bromo-N-((1-phenylcyclopent-3-en-1-yl)methyl)-5-(trifluoromethyl)pyrazolo[1,5-a]pyrimidin-7-amine] |
| 7.00 to 10.00 | 7.00 to 10.00 |  | CNC1CCC(CNc2cc(C(F)(F)F)nc3cc(Br)nn23)(c2ccccc2)CC1 (centres unmarked) [Example 83, 2-Bromo-N-((4-(methylamino)-1-phenylcyclohexyl)methyl)-5-(trifluoromethyl)pyrazolo[1,5-a]pyrimidin-7-amine] |
| 7.00 to 10.00 | 7.00 to 10.00 |  | CC(=O)N(C)C1CCC(CNc2cc(C(F)(F)F)nc3cc(Br)nn23)(c2ccccc2)CC1 (centres unmarked) [Example 85, N-(4-(((2-Bromo-5-(trifluoromethyl)pyrazolo[1,5-a]pyrimidin-7-yl)amino)methyl)-4-phenylcyclohexyl)-N-methylacetamide] |
|  | 7.00 to 10.00 |  | N#Cc1cc2nc(C(F)(F)F)cc(NCC3(n4cccn4)CN(S(N)(=O)=O)C3)n2n1 [Example 95, 3-(((2-Cyano-5-(trifluoromethyl)pyrazolo[1,5-a]pyrimidin-7-yl)amino)methyl)-3-(1H-pyrazol-1-yl)azetidine-1-sulfonamide] |
|  | 7.00 to 10.00 |  | CN(C)c1cc(NCC2(c3ccc(F)cc3)CN(S(N)(=O)=O)C2)n2nc(C(F)(F)F)cc2n1 [Example 105, 3-(((5-(Dimethylamino)-2-(trifluoromethyl)pyrazolo[1,5-a]pyrimidin-7-yl)amino)methyl)-3-(4-fluorophenyl)azetidine-1-sulfonamide] |
